Source: patent publication US20250092345A1, “INTER ORGAN PLATFORM FOR MICROPHYSIOLOGICAL SYSTEM ON A CHIP” (THE TRUSTEES OF COLUMBIA UNIVERSITY IN THE CITY OF NEW YORK, priority 2020, published 2025)

Tests used:
[1] = system: engineered cardiac tissues; test: Cardiac tissue in the integrated platform with microfluidic perfusion, linsitinib; format: cell-based, human; conditions: after linsitinib exposure
Description: (§1) The TE-ES and cardiac tissues were then cultured in the integrated platform with perfusion of mixed media. Linsitinib was introduced into the reservoir and delivered to tissues via circulation of perfusate and diffusion into the tissues.
Human iPS cell-derived cardiomyocytes at day 13 of differentiation were combined with normal human dermal fibroblasts (NHDF; Lonza) at a ratio of 75% human iPS-derived cardiomyocytes and 25% NHDF, for a total of 1 million cells per tissue. The hydrogel was formed by mixing 33 mg/mL of human fibrinogen (Sigma-Aldrich) with 25 U/mL of human thrombin (Sigma-Aldrich), at an 84:16 ratio. […]
To measure the cardiac contractility online, we took contractility videos of the tissues that were analyzed using the native MATLAB code we previously developed. Tissue contractility was measured by tracking the change in tissue area as a function of time. […] Absolute differences in cell area from the baseline frame were then calculated to create a time course of cell area changes over time. The resulting time courses were analyzed using a native MATLAB (MATHWorks) automated peak finding algorithm to determine locations of maximum cell contractions in the time profiles. Beat period lengths were determined from the length of time between the pairs of local maxima, and the beat frequencies were determined by inverting beat periods. […]

[2] = system: non-metastatic TE-ES bone tumor tissues; test: Non-metastatic ES bone tumor in the integrated platform with microfluidic perfusion, linsitinib; format: cell-based, human; conditions: 12 μM
Description: as §1
ES cells, when co-cultured with mesenchymal stem cells and exposed to physiological shear-stress in a perfusion bioreactor, can become resistant to IGF-1R inhibitors. Therefore, we evaluated the role of flow derived shear stress in this newly found resistance of non-metastatic TE-ES bone tumor tissues to the IGF-1R inhibitor linsitinib. Linsitinib was introduced into the platform (12 µM, 3 days), either via circulation or directly into the TE-ES tissue chamber (FIG. 34G), to distinguish effects of flow-derived stimuli from drug diffusion into the tissues.
Upon maturation, bone tumors in the platform were exposed to a 1:1 mixture of the bone tumor and cardiac tissue media, supplemented by 12 μM linsitinib in the treated groups. […]
Cell viability was analyzed using a previously established protocol. Cancer cell viability was measured for GFP-Luciferase labelled cancer cells using ONE-Glo luciferase substrate that was prepared according to manufacturer's protocol (Promega). […] Where noted, longitudinal cell viability was also assessed using luminescence, though at the cost of signal strength. […] Some of the IC50 values were determined using cell viability data generated using an MTT assay (RealTime-Glo™ MT Cell Viability Assay, Promega) that were analyzed according to manufacturer's protocol.
In order to confirm linsitinib mechanism of action in ES cells, both RD-ES and SK-N-MC monolayers were treated with 12 μM linsitinib for 6 hours, lysed, measured for protein quantity using a Pierce™ BCA Protein Assay Kit (ThermoFisher), and loaded equally onto a Human Phospho-IGF1R ELISA (RayBiotech) to semi-quantitatively determine phosphorylated levels of the IGF-1 receptor, according to manufacturer's instructions. Osteocalcin (OCN), osteopontin (OPN), and lactic acid dehydrogenase (LDH) secreted levels were all measured using a similar approach. […]

[3] = cited from earlier work

## C[C@]1(O)C[C@@H](c2nc(-c3ccc4ccc(-c5ccccc5)nc4c3)c3c(N)nccn32)C1 [linsitinib]
[1]
  inotropic response to subsequent isoproterenol: expected inotropic response
[2]; 3 days, directly into the tissue chamber (immediate exposure)
  response to the drug (luminescence): fast response
[2]; 3 days, perfused integrated platform
  drug response (luminescence): insignificant drug response
[2]; 72 hours, perfused integrated platform
  secretion of LDH, vehicle vs linsitinib treated: no significant difference
[3]; Phase II clinical trial, no patients completing the trial
  clinical outcome in ES: unable to stop progression of ES
[3]; clinical trials of other types of cancer
  atrial fibrillation: 3.75-5%
